In the test the test system is P388 leukemia ip, CD2F1 mice, survival T/C. Put plainly: NCI In Vivo Anticancer Drug Screen. Data for tumor model P388 Leukemia (intraperitoneal) in CD2F1 (CDF1) mice. To be noted: endpoint: median survival time, higher = longer survival. Summed up:
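Mice carrying the transplanted tumor received test compound or vehicle. Survival was recorded in each group, and the value is the treated-group measurement divided by that of the vehicle-treated control group.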

[1] abbreviates: dose: 3.13 mg/kg/injection, schedule: Q01DX009 (ip), vehicle: saline with Tween-80.
[2] abbreviates: dose: 6.25 mg/kg/injection, schedule: Q01DX009 (ip), vehicle: saline with Tween-80.
The mark [3] stands for this setting: dose: 12.5 mg/kg/injection, schedule: Q01DX009 (ip), vehicle: saline with Tween-80.
Where [4] appears, read: dose: 60.0 mg/kg/injection, schedule: Q01DX005 (ip), vehicle: saline with Tween-80.
The mark [5] stands for this setting: dose: 120.0 mg/kg/injection, schedule: Q01DX005 (ip), vehicle: saline with Tween-80.
Setting [6] is: dose: 50.0 mg/kg/injection, schedule: Q01DX005 (ip), vehicle: saline with Tween-80.
[7] abbreviates: dose: 50.0 mg/kg/injection, schedule: Q01DX009 (ip), vehicle: saline with Tween-80.
Setting [8] is: dose: 100.0 mg/kg/injection, schedule: Q01DX009 (ip), vehicle: saline with Tween-80.
Setting [9] is: dose: 200.0 mg/kg/injection, schedule: Q01DX009 (ip), vehicle: saline with Tween-80.
Setting [10] is: dose: 50.0 mg/kg/injection, schedule: Q01DX009 (ip), vehicle: Klucel (hydroxypropylcellulose) (HPC).
Where [11] appears, read: dose: 200.0 mg/kg/injection, schedule: Q01DX009 (ip), vehicle: Klucel (hydroxypropylcellulose) (HPC).
[12] abbreviates: dose: 12.5 mg/kg/injection, schedule: Q01DX009 (ip), vehicle: saline.
Where [13] appears, read: dose: 25.0 mg/kg/injection, schedule: Q01DX009 (ip), vehicle: saline.
Where [14] appears, read: dose: 100.0 mg/kg/injection, schedule: Q01DX009 (ip), vehicle: Klucel (hydroxypropylcellulose) (HPC).

Where “and” joins values, the source holds several entries; their conditions need not be identical. Equal values may be shown once. Toxic doses and inconclusive results are not listed.

For `N=c1nc(-c2ccccc2)nc2[nH]c3c4cccc5cccc(c3nc12)c54`, the T/C (dose: 50.0 mg/kg/injection, schedule: Q01DX005 (ip), vehicle: Klucel + Tween-80) was 90 % of control; the T/C (dose: 100.0 mg/kg/injection, schedule: Q01DX005 (ip), vehicle: Klucel + Tween-80) is 99 % of control; the T/C (dose: 200.0 mg/kg/injection, schedule: Q01DX005 (ip), vehicle: Klucel + Tween-80) is 99 % of control.
For the molecule `O=C1C2CC=CCC2C(=O)N1SC(Cl)(Cl)Cl` (configuration not stated), the T/C was 121 % of control under setting [1], 121 % of control under setting [2] and 120 % of control under setting [3].
As for `CC1(C)CO/C(=C/C(=O)c2ccccc2)N1C(=O)c1ccccc1`, the T/C is, setting by setting: under setting [4], 99 % of control; under setting [5], 90 % of control.
Turning to `CC(=O)c1ccn[nH]1`, the T/C was 98 % of control under setting [6]; 99 % of control (dose: 100.0 mg/kg/injection, schedule: Q01DX005 (ip), vehicle: saline with Tween-80); 110 % of control (dose: 200.0 mg/kg/injection, schedule: Q01DX005 (ip), vehicle: saline with Tween-80).
Turning to `Cc1c2cc[n+](C)cc2c(COC2OC(CO)C(O)C2O)c2c3ccccc3n(C)c12` (configuration not stated), the T/C (dose: 60.0 mg/kg/injection, schedule: Q01DX005 (ip), vehicle: Klucel (hydroxypropylcellulose) (HPC)) is 123 % of control.
On to `CCC(C)C1NC(=O)C2CCCN2C(=O)C(CC2CO2)OC(=O)CCNC(=O)C(C)N(C)C(=O)C(C(C)C)N(C)C1=O` (configuration not stated), for which the T/C (dose: 1.56 mg/kg/injection, schedule: Q01DX005 (ip), vehicle: water) was 100 % of control and the T/C (dose: 3.12 mg/kg/injection, schedule: Q01DX005 (ip), vehicle: water) was 109 % of control.
As for `CC(=O)CC1(O)CCCC1`, the T/C was 98 % of control (dose: 60.0 mg/kg/injection, schedule: Q01DX005 (ip), vehicle: saline); 105 % of control (dose: 120.0 mg/kg/injection, schedule: Q01DX005 (ip), vehicle: saline); 100 % of control (dose: 240.0 mg/kg/injection, schedule: Q01DX005 (ip), vehicle: saline).
Turning to `CC(=O)N1CCc2cc([N+](=O)[O-])cc(Br)c21`, the T/C (dose: 12.5 mg/kg/injection, schedule: Q01DX009 (ip), vehicle: distilled water + Tween-80) is 107 % of control; the T/C (dose: 25.0 mg/kg/injection, schedule: Q01DX009 (ip), vehicle: distilled water + Tween-80) was 98 % of control; the T/C (dose: 50.0 mg/kg/injection, schedule: Q01DX009 (ip), vehicle: distilled water + Tween-80) was 91 % of control; the T/C (dose: 100.0 mg/kg/injection, schedule: Q01DX009 (ip), vehicle: distilled water + Tween-80) is 98 % of control; the T/C (dose: 200.0 mg/kg/injection, schedule: Q01DX009 (ip), vehicle: distilled water + Tween-80) was 91 % of control.
Turning to `CSc1nc(NC2OC(CO)C(O)C(O)C2O)c(Cl)c(=O)n1C` (configuration not stated), the T/C is, setting by setting: (dose: 15.0 mg/kg/injection, schedule: Q01DX005 (ip), vehicle: saline with Tween-80) 94 % of control; (dose: 30.0 mg/kg/injection, schedule: Q01DX005 (ip), vehicle: saline with Tween-80) 95 % of control; under setting [4], 91 % of control and 97 % of control; under setting [5], 100 % of control.
For the molecule `COC1/C=C/OC2(C)Oc3c(C)c(O)c4c(O)c(c(/C=N/N5C(C)CN(Cc6ccc(C)cc6)CC5C)c(O)c4c3C2=O)NC(=O)C(C)=C/C=C/C(C)C(O)C(C)C(O)C(C)C(OC(C)=O)C1C` (configuration not stated), the T/C by setting is: under setting [7], 97 % of control; under setting [8], 96 % of control; under setting [9], 103 % of control.
Take `O=C1C2C3C=CC(C3)C2C(=O)N1CNc1ccc2nc(SC3C=CCCC3)sc2c1` (configuration not stated): the T/C is 106 % of control (dose: 12.5 mg/kg/injection, schedule: Q01DX009 (ip), vehicle: Klucel (hydroxypropylcellulose) (HPC)); 101 % of control (dose: 25.0 mg/kg/injection, schedule: Q01DX009 (ip), vehicle: Klucel (hydroxypropylcellulose) (HPC)); 90 % of control and 98 % of control under setting [10]; 91 % of control under setting [11].
In the case of `c1cc[n+](CCC2OCCO2)cc1`, the T/C is 109 % of control under setting [12]; 109 % of control under setting [13]; 100 % of control (dose: 50.0 mg/kg/injection, schedule: Q01DX009 (ip), vehicle: saline); 108 % of control (dose: 100.0 mg/kg/injection, schedule: Q01DX009 (ip), vehicle: saline).
As for `CCC1=[N+](C)c2ccccc2C1(C)C`, the T/C runs as follows: (dose: 25.0 mg/kg/injection, schedule: Q04DX003 (ip), vehicle: saline) 100 % of control; (dose: 50.0 mg/kg/injection, schedule: Q04DX003 (ip), vehicle: saline) 99 % of control; (dose: 100.0 mg/kg/injection, schedule: Q04DX003 (ip), vehicle: saline) 107 % of control.
For the molecule `BrC1CC(Br)c2c1c1c(c3c2C(Br)CC3Br)C(Br)CC1Br` (configuration not stated), the T/C under setting [8] is 150 % of control and the T/C under setting [9] is 156 % of control.
Turning to `C(=Nc1ccc2ccccc2c1)Nc1ccc2ccccc2c1.[Cu+2]`, the T/C was 115 % of control under setting [13] and 117 % of control under setting [7].
Consider `COc1cc(NCCCCCCNCC(C)C)c2nccc(C)c2c1`, for which the T/C runs as follows: (dose: 6.25 mg/kg/injection, schedule: Q01DX009 (ip), vehicle: saline) 95 % of control; under setting [12], 95 % of control; under setting [13], 96 % of control.
For `CCO/C=C1N=C(/C=C/c2ccc(Cl)cc2)OC/1=O`, the T/C reads like this: under setting [4], 91 % of control; under setting [5], 90 % of control.
As for `Nc1ccc2c(n1)NCC/C2=N\Nc1ccc(F)cc1`, the T/C reads like this: under setting [7], 105 % of control; under setting [8], 105 % of control.
For the molecule `NNCCO`, the T/C is, setting by setting: (dose: 3.12 mg/kg/injection, schedule: Q01DX009 (ip), vehicle: saline with Tween-80) 108 % of control; under setting [2], 99 % of control and 100 % of control; under setting [3], 99 % of control and 103 % of control; (dose: 25.0 mg/kg/injection, schedule: Q01DX009 (ip), vehicle: saline with Tween-80) 100 % of control and 104 % of control; under setting [7], 100 % of control.
As for `CC1(O)CCC(O)CC1CC[N+](C)(C)[O-]` (configuration not stated), the T/C (dose: 50.0 mg/kg/injection, schedule: Q01DX005 (ip), vehicle: saline) was 102 % of control; the T/C (dose: 100.0 mg/kg/injection, schedule: Q01DX005 (ip), vehicle: saline) was 99 % of control; the T/C (dose: 200.0 mg/kg/injection, schedule: Q01DX005 (ip), vehicle: saline) was 102 % of control.
Take `Cc1sc(N=Nc2ccc(N(C)C)cc2)[n+]([O-])c1C`: the T/C is, setting by setting: under setting [10], 111 % of control; under setting [14], 102 % of control; under setting [11], 104 % of control.
On to `CC(C)=CCCC(C)(OC1OC(COC2OC(CO)C(O)C(O)C2O)C(O)C(O)C1O)C1CCC2(C)C1C(O)CC1C3(C)CCC(OC4OC(CO)C(O)C(O)C4OC4OC(CO)C(O)C(O)C4O)C(C)(C)C3CCC12C` (configuration not stated), for which the T/C (dose: 2.0 mg/kg/injection, schedule: Q01DX009 (ip), vehicle: Klucel (hydroxypropylcellulose) (HPC)) is 102 % of control; the T/C (dose: 4.0 mg/kg/injection, schedule: Q01DX009 (ip), vehicle: Klucel (hydroxypropylcellulose) (HPC)) is 95 % of control; the T/C (dose: 8.0 mg/kg/injection, schedule: Q01DX009 (ip), vehicle: Klucel (hydroxypropylcellulose) (HPC)) is 98 % of control; the T/C (dose: 16.0 mg/kg/injection, schedule: Q01DX009 (ip), vehicle: Klucel (hydroxypropylcellulose) (HPC)) is 93 % of control; the T/C (dose: 32.0 mg/kg/injection, schedule: Q01DX009 (ip), vehicle: Klucel (hydroxypropylcellulose) (HPC)) was 88 % of control.
`CC1([CH2][Hg][Cl])Cc2ccccc2O1` (configuration not stated): the T/C was 91 % of control (dose: 0.78 mg/kg/injection, schedule: Q01DX009 (ip), vehicle: saline with Tween-80); 95 % of control (dose: 1.56 mg/kg/injection, schedule: Q01DX009 (ip), vehicle: saline with Tween-80); 86 % of control under setting [1].
Regarding `COc1ccc(Cc2c3ccccc3cc[n+]2Cc2ccccc2)cc1OC`, the T/C is 103 % of control (dose: 6.25 mg/kg/injection, schedule: Q01DX005 (ip), vehicle: saline with Tween-80); 111 % of control (dose: 12.5 mg/kg/injection, schedule: Q01DX005 (ip), vehicle: saline with Tween-80); 111 % of control (dose: 25.0 mg/kg/injection, schedule: Q01DX005 (ip), vehicle: saline with Tween-80); 114 % of control under setting [6].
On to `CC(C)c1ncc(CO)n1Cc1c(Cl)cccc1Cl`, for which the T/C by setting is: under setting [10], 100 % of control; under setting [14], 102 % of control; under setting [11], 100 % of control.
